Source: patent US9695155B2, “Herbicidal substituted pyrimidinyloxy benzene compounds” (E. I. DU PONT DE NEMOURS AND COMPANY, priority 2013, dated 2017)

Experiments:
pigweed [1] = assay: Test A preemergence; format: in vivo, Amaranthus retroflexus; conditions: Amaranthus retroflexus, pre-emergence, 0 to 100 scale where 0 is no effect and 100 is complete control
In short: (§1)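 Visual 0–100 rating (100 = complete control) taken about 10 d post-treatment relative to untreated checks. Preemergence: directed soil spray on sown loam/sand pots. Postemergence: seedlings 2–10 cm, 1–2 leaf. Non-phytotoxic solvent formulation with surfactant.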

giant foxtail [2] = assay: Test A postemergence; format: in vivo, Setaria faberii; conditions: Setaria faberi, post-emergence, 240 h, 0 to 100 scale where 0 is no effect and 100 is complete control
In short: as §1

pigweed [3] = assay: Test A postemergence; format: in vivo, Amaranthus retroflexus; conditions: Amaranthus retroflexus, post-emergence, 0 to 100 scale where 0 is no effect and 100 is complete control
In short: as §1

blackgrass = assay: Test C preemergence; format: in vivo, Alopecurus myosuroides; conditions: Alopecurus myosuroides, pre-emergence
In short: (§2)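 Greenhouse herbicide screen. Pre: seeded loam/sand, sprayed at planting. Post: 1–4 leaf plants (2–18 cm) in peat-based mix. Formulation: solvent mixture + surfactant, non-phytotoxic. Readout: visual % control vs untreated, 13–15 d; dash = not tested.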

giant foxtail [4] = assay: Test C preemergence; format: in vivo, Setaria faberii; conditions: Setaria faberi, pre-emergence
In short: as §2

johnsongrass [5] = assay: Test C preemergence; format: in vivo, Sorghum halepense; conditions: Sorghum halepense, pre-emergence, preemergence, read-out: Johnsongrass plant response rating
In short: as §2

ragweed = assay: Test C preemergence; format: in vivo, Ambrosia elatior; conditions: Ambrosia artemisiifolia, pre-emergence, preemergence, read-out: Ragweed plant response rating
In short: as §2

corn = assay: Test C postemergence; format: in vivo, Zea mays; conditions: Zea mays, post-emergence
In short: as §2

large (Lg) crabgrass = assay: Test C postemergence; format: in vivo, Digitaria sanguinalis; conditions: Digitaria sanguinalis, post-emergence
In short: as §2

johnsongrass [6] = assay: Test C postemergence; format: in vivo, Sorghum halepense; conditions: Sorghum halepense, post-emergence
In short: as §2

oilseed rape = assay: Test C postemergence; format: in vivo, Brassica napus; conditions: Brassica napus, post-emergence
In short: as §2

waterhemp = assay: Test C postemergence; format: in vivo, Amaranthus rudis; conditions: Amaranthus tuberculatus, post-emergence
In short: as §2

velvetleaf = assay: Test C postemergence; format: in vivo, Abutilon theophrasti; conditions: Abutilon theophrasti, post-emergence
In short: as §2

[7] = 16 g ai/ha, scale 0 to 100 (0 no effect, 100 complete control)
[8] = 62 g ai/ha, scale 0 (no effect) to 100 (complete control)
[9] = 125 g ai/ha, scale 0 (no effect) to 100 (complete control)

## FC(F)(F)COc1cnn(-c2ccccc2Oc2ncc(Cl)cn2)c1 [Compound 138, 5-chloro-2-[2-[4-(2,2,2-trifluoroethoxy)-1H-pyrazol-1-yl]phenoxy]pyrimidine]
Pigweed [1]; 125 g ai/ha, read-out: Plant response rating, Pigweed
  pest or weed control at 125 g/ha: 90%
Pigweed [1]; 240 h, 500 g ai/ha, read-out: Pigweed plant response rating
  pest or weed control at 500 g/ha: 100%
Giant foxtail [2]; 125 g ai/ha, read-out: Foxtail, Giant plant response rating
  pest or weed control at 125 g/ha: 90%
Giant foxtail [2]; 500 g ai/ha, read-out: Plant response rating, Foxtail, Giant
  pest or weed control at 500 g/ha: 100%
Pigweed [3]; 500 g ai/ha, read-out: Plant response rating, Pigweed
  pest or weed control at 500 g/ha: 100%
Pigweed [3]; 240 h, 125 g ai/ha, read-out: Pigweed plant response rating
  pest or weed control at 125 g/ha: 100%
blackgrass; 16 g ai/ha, preemergence, scale 0 to 100 (0 no effect, 100 complete control), read-out: Blackgrass plant response rating
  pest or weed control at 16 g/ha: 5%
blackgrass; 62 g ai/ha, preemergence, scale 0 (no effect) to 100 (complete control), read-out: Blackgrass plant response rating
  pest or weed control at 62 g/ha: 80%
blackgrass; 125 g ai/ha, preemergence, scale 0 (no effect) to 100 (complete control), read-out: Blackgrass plant response rating
  pest or weed control at 125 g/ha: 90%
blackgrass; Preemergence, 31 g ai/ha, scale 0 to 100, 0 no effect, 100 complete control, read-out: Plant response rating, Blackgrass
  pest or weed control at 31 g/ha: 20%
Giant foxtail [4]; 16 g ai/ha, preemergence, scale 0 to 100 (0 no effect, 100 complete control), read-out: Foxtail, Giant plant response rating
  pest or weed control at 16 g/ha: 30%
Giant foxtail [4]; 62 g ai/ha, preemergence, scale 0 (no effect) to 100 (complete control), read-out: Foxtail, Giant plant response rating
  pest or weed control at 62 g/ha: 100%
Giant foxtail [4]; 125 g ai/ha, preemergence, scale 0 (no effect) to 100 (complete control), read-out: Foxtail, Giant plant response rating
  pest or weed control at 125 g/ha: 100%
Giant foxtail [4]; Preemergence, 31 g ai/ha, scale 0 to 100, 0 no effect, 100 complete control, read-out: Plant response rating, Foxtail, Giant
  pest or weed control at 31 g/ha: 90%
Johnsongrass [5]; [7]
  pest or weed control at 16 g/ha: 0%
Johnsongrass [5]; [8]
  pest or weed control at 62 g/ha: 40%
Johnsongrass [5]; [9]
  pest or weed control at 125 g/ha: 65%
ragweed; [7]
  pest or weed control at 16 g/ha: 0%
ragweed; [8]
  pest or weed control at 62 g/ha: 5%
ragweed; [9]
  pest or weed control at 125 g/ha: 10%
corn; 16 g ai/ha, postemergence, 0 is no effect, 100 is complete control, read-out: Plant response rating (0 to 100), Corn
  plant injury at 16 g/ha: 5%
corn; 125 g ai/ha, postemergence, visual rating, scale 0 to 100 (0 no effect, 100 complete control)
  Corn plant response rating (crop injury, 0 = no effect, 100 = complete kill) at 125 g/ha: 10%
corn; Postemergence, 62 g ai/ha, scale 0 to 100 (0 no effect, 100 complete control)
  Corn plant response rating (crop injury, 0 = no effect, 100 = complete kill) at 62 g/ha: 5%
Large (Lg) crabgrass; 16 g ai/ha, postemergence, 0 is no effect, 100 is complete control, read-out: Plant response rating (0 to 100), Crabgrass, Large
  pest or weed control at 16 g/ha: 10%
Large (Lg) crabgrass; 125 g ai/ha, postemergence, visual rating, scale 0 to 100 (0 no effect, 100 complete control), read-out: Plant response rating, Crabgrass, Large
  pest or weed control at 125 g/ha: 15%
Large (Lg) crabgrass; Postemergence, 62 g ai/ha, scale 0 to 100 (0 no effect, 100 complete control), read-out: Plant response rating, Crabgrass, Large
  pest or weed control at 62 g/ha: 15%
Johnsongrass [6]; 16 g ai/ha, postemergence, 0 is no effect, 100 is complete control, read-out: Plant response rating (0 to 100), Johnsongrass
  pest or weed control at 16 g/ha: 5%
Johnsongrass [6]; 125 g ai/ha, postemergence, visual rating, scale 0 to 100 (0 no effect, 100 complete control), read-out: Plant response rating, Johnsongrass
  pest or weed control at 125 g/ha: 10%
Johnsongrass [6]; Postemergence, 62 g ai/ha, scale 0 to 100 (0 no effect, 100 complete control), read-out: Plant response rating, Johnsongrass
  pest or weed control at 62 g/ha: 5%
Oilseed rape; 16 g ai/ha, postemergence, 0 is no effect, 100 is complete control, read-out: Plant response rating (0 to 100), Oilseed Rape
  plant injury at 16 g/ha: 5%
Oilseed rape; 125 g ai/ha, postemergence, visual rating, scale 0 to 100 (0 no effect, 100 complete control), read-out: Plant response rating, Oilseed Rape
  plant injury at 125 g/ha: 80%
Oilseed rape; Postemergence, 62 g ai/ha, scale 0 to 100 (0 no effect, 100 complete control), read-out: Plant response rating, Oilseed Rape
  plant injury at 62 g/ha: 60%
waterhemp; 16 g ai/ha, postemergence, 0 is no effect, 100 is complete control, read-out: Plant response rating (0 to 100), Waterhemp
  pest or weed control at 16 g/ha: 60%
waterhemp; 125 g ai/ha, postemergence, visual rating, scale 0 to 100 (0 no effect, 100 complete control), read-out: Plant response rating, Waterhemp
  pest or weed control at 125 g/ha: 85%
waterhemp; Postemergence, 62 g ai/ha, scale 0 to 100 (0 no effect, 100 complete control), read-out: Plant response rating, Waterhemp
  pest or weed control at 62 g/ha: 75%
velvetleaf; 16 g ai/ha, postemergence, 0 is no effect, 100 is complete control, read-out: Plant response rating (0 to 100), Velvetleaf
  pest or weed control at 16 g/ha: 30%
velvetleaf; 125 g ai/ha, postemergence, visual rating, scale 0 to 100 (0 no effect, 100 complete control), read-out: Plant response rating, Velvetleaf
  pest or weed control at 125 g/ha: 55%
velvetleaf; Postemergence, 62 g ai/ha, scale 0 to 100 (0 no effect, 100 complete control), read-out: Plant response rating, Velvetleaf
  pest or weed control at 62 g/ha: 20%
